According to patent US20080318961A1, “Drugs comprising chymase inhibitors and ACE inhibitors as effective ingredients” (Teijin, priority 2001, published 2008):
Where a name gives a salt, the structure may show the parent alone. Read-outs that look alike come from different tables or passages of the source.

Assays:
[1] = test system: hamster myocardial infarction models; details: Life Sci. 2002, Vol. 71, p. 437; cited from earlier work
[2] = target: T1, human mast cell chymase (Homo sapiens, UniProt P23946); test: Recombinant human mast cell chymase enzymatic activity inhibition; type: biochemical
T1 construct: made in house; host or cells: insect cells (Th5), recombinant baculovirus
T1 sequence (P23946 22-247): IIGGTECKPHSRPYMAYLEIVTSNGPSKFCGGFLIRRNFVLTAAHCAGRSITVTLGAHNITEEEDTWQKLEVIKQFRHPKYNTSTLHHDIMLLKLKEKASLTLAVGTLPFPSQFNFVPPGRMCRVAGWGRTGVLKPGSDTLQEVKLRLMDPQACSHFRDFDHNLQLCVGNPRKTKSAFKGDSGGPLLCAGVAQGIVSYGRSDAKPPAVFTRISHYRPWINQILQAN
Method: Specifically, Heparin Sepharose (Pharmacia) was used for purification from a culture supernatant of insect cells (Th5) infected with recombinant baculovirus containing cDNA coding for human mast cell chymase.
The time-related change in absorbance at 405 nm was measured to determine the inhibiting activity.

[3] = test system: hamster chymase; test: Accelerated vascular permeation model by intradermal injection of hamster chymase; type: in vivo, Syrian hamsters; details: 0.1% (w/w) in feed for 5 days; Evans Blue, 30 minutes after intradermal hamster chymase
Method: Compound No. 33 was mixed with powder feed to a content of 0.1% (w/w) to prepare a feed which was given to hamsters (Syrian hamsters, male, 7-week-old) for 5 days. Under ether anesthesia, the hamster backs were shaved and the hamster chymase was intradermally injected (hamster chymase: 1, 0.3, 0.1 μg/site; vehicle: 0.15 M NaCl, 0.1 mg/ml BSA, 10 mM Pi-Na, pH 7.0). Evans Blue (1% (w/v) solution, 5 ml/kg) was intravenously administered just prior to the intradermal injection, and the blue spots produced by chymase intradermal injection were quantified. Specifically, the hamsters were bled to death from the abdominal aorta 30 minutes after intradermal injection, and the skin was sampled using the blueing spots as an index. The sampled skin was placed in a glass test tube, the dye was extracted with 2 ml of EB extract (acetone:0.3% Na2SO4=7:3), and the dye leakage was measured by colorimetry using a spectrophotometer (620 nm).

[4] = target: hamster chymase 1 (Mesocricetus auratus, UniProt O08732); test: Chymase-inhibiting activity using hamster chymase; type: biochemical; details: Compound No. 33; read-out: Inhibition constant, Hamster chymase
Chain of hamster chymase 1 (O08732 entry or part of it): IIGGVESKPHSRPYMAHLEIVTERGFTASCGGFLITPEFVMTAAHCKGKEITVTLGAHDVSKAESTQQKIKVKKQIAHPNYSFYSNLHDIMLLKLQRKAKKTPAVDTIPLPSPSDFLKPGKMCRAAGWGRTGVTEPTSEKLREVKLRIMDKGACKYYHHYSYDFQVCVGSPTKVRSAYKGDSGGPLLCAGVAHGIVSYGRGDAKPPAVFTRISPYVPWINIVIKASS
Method: After adding 2 μl of a DMSO solution containing a compound of the invention to 50 μl of Buffer A (0.5-3.0 M NaCl, 50 mM Tris-HCl, pH 8.0) containing 1-5 ng of the active form human mast cell chymase obtained in Example 1, there was added 50 μl of Buffer A containing 0.5 mM succinyl-alanyl-histidyl-prolyl-phenylalanylparanitroanilide (Bachem) as a substrate, and reaction was conducted at room temperature for 5 minutes. The time-related change in absorbance at 405 nm was measured to determine the inhibiting activity.
Hamster chymase was obtained from a crude product extracted from hamster tongue tissue with an acidic buffer solution and subsequently purified with a Phenyl-Sepharose column (elution: 0.15 M NaCl, 50 mM sodium phosphate, pH 6.5, 50% ethylene glycol) and a Heparin-Cellulofine column (elution: 0.5-2.0 M NaCl). The protein was identified as hamster chymase 1 based on the N-terminal amino acid sequence, and activity inhibition was measured by the same method as for the human chymase.

[5] = target: Mouse chymase; test: Enzyme selectivity: mouse chymase inhibition; type: biochemical; details: Compound No. 33; read-out: Inhibition constant, Mouse chymase
[6] = target: Chymotrypsin (Bos taurus, UniProt P00766); test: Enzyme selectivity: chymotrypsin inhibition; type: biochemical; details: Compound No. 33; read-out: Inhibition constant, Chymotrypsin
[7] = target: T2, Trypsin (Bos taurus, UniProt P00760); test: Enzyme selectivity: trypsin inhibition; type: biochemical; details: Compound No. 33; read-out: Inhibition constant, Trypsin
T2 construct: gene PRSS1
T2 sequence (P00760 24-246): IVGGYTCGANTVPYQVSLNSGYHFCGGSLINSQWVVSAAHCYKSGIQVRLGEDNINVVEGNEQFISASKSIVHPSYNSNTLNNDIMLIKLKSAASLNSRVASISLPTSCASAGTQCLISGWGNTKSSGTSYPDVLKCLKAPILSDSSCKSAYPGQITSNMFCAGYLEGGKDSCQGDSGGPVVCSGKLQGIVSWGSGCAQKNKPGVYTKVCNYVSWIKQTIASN

[8] = target: Human tryptase (Homo sapiens, UniProt Q15661); test: Enzyme selectivity: human tryptase inhibition; type: biochemical; details: Compound No. 33; read-out: Inhibition constant, Human tryptase
Chain of Human tryptase (Q15661 31-275): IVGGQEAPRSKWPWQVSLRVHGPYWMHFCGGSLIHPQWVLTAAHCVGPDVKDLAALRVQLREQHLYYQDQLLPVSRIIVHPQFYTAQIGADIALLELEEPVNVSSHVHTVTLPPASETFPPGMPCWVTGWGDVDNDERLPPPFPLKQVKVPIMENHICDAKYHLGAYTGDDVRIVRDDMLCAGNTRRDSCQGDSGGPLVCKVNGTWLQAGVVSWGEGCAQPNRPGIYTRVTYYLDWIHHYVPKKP

[9] = Blood drug concentrations upon oral administration to hamsters; type: in vivo; details: hamster, serum, 0.1% (w/w) in feed for 5 days, mean±S.E., N=4, read-out: hamster serum concentration of the parent drug
Method: The chymase inhibitor designated as Compound No. 33 was mixed with MF powder feed to a content of 0.1% (w/w) to prepare a hamster feed which was given to hamsters for 5 days. Blood was sampled from the abdominal aorta under ether anesthesia, the serum was extracted, and the serum compound concentrations were measured by high-performance liquid chromatography.

[10] = test system: Human chymase-overexpressing mice (TGM); test: Angiotensin-elicited blood pressure increase model using chymase-overexpressing mice; type: in vivo; details: continuous angiotensin I infusion; for suppression of vasopressor effect (blood pressure): compared to control group, combination normal from 10th day, P<0.05
Method: Human chymase-overexpressing mice (hereinafter abbreviated as “TGM”) created by introduction of the human chymase gene with an angiotensin II-producing function were used as the model animals. Specifically, 8- to 10-week-old TGM mice were used, and angiotensin I was continuously infused with a microosmostic pump embedded under the mouse skin (70 μg/kg/min) to create continuous hypertensive mouse models. The continuous infusion of angiotensin I was confirmed to elicit a vasopressor response of about 30 mmHg in the TGM (n=6) with respect to the wild type (n=8), while depressor action was examined in groups administered a chymase inhibitor (Compound No. 33, 0.1% diet, n=7), an ACE inhibitor (temocapril hydrochloride, 2.0 mg/kg/day, n=6), an angiotensin receptor blocker (ARB) (Valsartan, 14 mg/kg/day, n=7) and a chymase inhibitor and ACE inhibitor simultaneously (Compound No. 33, 0.1% diet, and temocapril hydrochloride, 2.0 mg/kg/day, n=6). The letter “n” indicates the number of individuals. […] […].

[11] = test system: canine myocardial infarction models; details: 75th Annual Meeting of the Japanese Pharmacological Society; cited from earlier work
[12] = test system: chymase; details: WO00/51640, J. Med. Chem., 2001, Vol. 44, p. 1286; cited from earlier work
[13] = stated in parentheses for Compounds A and B, read-out: human chymase IC50 (reference compounds)
[14] = recombinant active form human mast cell chymase, room temperature 5 minutes, absorbance 405 nm, read-out: IC50, human mast cell chymase inhibiting activity

In the case of `CCOc1ccccc1CC1C(=O)N(C(=O)NC(c2ccc(C)cc2)c2ccc(C)cc2)C1Oc1ccc(C(=O)O)cc1` (stereo not shown) [4-[1-{[bis(4-methylphenyl)methyl]carbamoyl}-3-(2-ethoxybenzyl)-4-oxoazetidin-2-yloyl]benzoic acid], the “effect when administered alone to hamster myocardial infarction models” value [1] is given as “exhibit an effect”.
In the case of `O=C1CN(c2ccc(Cl)cc2)C(=O)N1S(=O)(=O)c1ccc(Cl)cc1` [Compound A, reference compound], the IC50 [2, 13] is reported as 9 nM and the “dye leakage (accelerated vascular permeation)” value (“dye leakage” below) [3] is reported as “no clear suppressing action”.
In the case of `[O-][S+](Cc1ccc(Cl)cc1)c1nnc(OCc2ccc(Cl)cc2)c2nccn12` (stereo not shown) [Compound B, reference compound], the IC50 [2, 13] is reported as 30 nM and the “dye leakage” value [3] is reported as “no clear suppressing action”.
With `O=C(O)CCCSc1nc2ccccc2n1Cc1cccc2ccccc12` [Compound No. 33] the Ki ([2]; Compound No. 33, read-out: Inhibition constant, Human chymase) was 6.2 ± 2.2 nM, the IC50 [2, 14] was 10 to 100 nM and the Ki [4] was 30.6 ± 3.8 nM. For the same molecule, the Ki [5] was 73.4 ± 24.2 nM, the Ki [6] was over 10000 nM and the Ki [7] was over 10000 nM. The Ki [8] was over 10000 nM, the concentration at 5 days [9] was 7.89 ± 1.09 µM and the “dye leakage” value [3] was “decrease in dye leakage”. For the same molecule, the “suppression of cardiac hypertrophy” value [10] was “no notable suppression” and the “suppression of vasopressor effect (blood pressure)” value [10] was “no notable suppression”.
In the case of `CCCCC(=O)N(Cc1ccc(-c2ccccc2-c2nnn[nH]2)cc1)[C@H](C(=O)O)C(C)C` [Valsartan], the “suppression of cardiac hypertrophy” value [10] is reported as “no notable suppression”.
`Cc1ccc2c(c1)c(Cn1c(SCCCC(=O)O)nc3ccccc31)cn2C` [compound 6] showed an IC50 [2, 14] of 10 to 100 nM.
`Cn1cc(Cn2c(SCCCC(=O)O)nc3ccccc32)c2c(Cl)cccc21` [compound 9] gave an IC50 [2, 14] of 10 to 100 nM.
In the case of `Cn1cc(Cn2c(SCCCC(=O)O)nc3ccccc32)c2c(F)cccc21` [compound 10], the IC50 [2, 14] is reported as 10 to 100 nM.
`O=C(O)CCCSc1nc2ccccc2n1Cc1csc2ccccc12` [compound 20] showed an IC50 [2, 14] of 10 to 100 nM.
In the case of `O=C(O)CCCSc1nc2ccccc2n1Cc1csc2ccc(Cl)cc12` [compound 22], the IC50 [2, 14] is reported as 10 to 100 nM.
With `Cc1ccc2scc(Cn3c(SCCCC(=O)O)nc4ccccc43)c2c1` [compound 24] the IC50 [2, 14] was 10 to 100 nM.
`O=C(O)CCCSc1nc2ccccc2n1Cc1csc2cccc(Cl)c12` [compound 27] showed an IC50 [2, 14] of 10 to 100 nM.
With `Cc1cc(C)c2c(Cn3c(SCCCC(=O)O)nc4ccccc43)csc2c1` [compound 31] the IC50 [2, 14] was 10 to 100 nM.
In the case of `COc1ccc2c(c1)nc(SCCCC(=O)O)n2Cc1cn(C)c2cccc(Cl)c12` [compound 45], the IC50 [2, 14] is reported as 10 to 100 nM.
For `COc1ccc2c(c1)nc(SCCCC(=O)O)n2Cc1csc2ccccc12` [compound 56], the IC50 [2, 14] was 10 to 100 nM.
For `COc1ccc2c(c1)nc(SCCCC(=O)O)n2Cc1csc2cccc(C)c12` [compound 62], the IC50 [2, 14] was 10 to 100 nM.
`N#Cc1ccc2c(c1)nc(SCCCC(=O)O)n2Cc1csc2ccccc12` [compound 92] showed an IC50 [2, 14] of 10 to 100 nM.
With `Cc1ccc2c(c1)nc(SCCCC(=O)O)n2Cc1csc2ccccc12` [compound 128] the IC50 [2, 14] was 10 to 100 nM.
Molecule `Cc1cc2nc(SCCCC(=O)O)n(Cc3cn(C)c4ccccc34)c2cc1C` [compound 182] has an IC50 [2, 14] of 10 to 100 nM.
For `Cc1cc2nc(SCCCC(=O)O)n(Cc3cn(C)c4cccc(C)c34)c2cc1C` [compound 187], the IC50 [2, 14] was 10 to 100 nM.
`Cc1cc2nc(SCCCC(=O)O)n(Cc3cn(C)c4cccc(Cl)c34)c2cc1C` [compound 189] showed an IC50 [2, 14] of 10 to 100 nM.
`Cc1cc2nc(SCCCC(=O)O)n(Cc3csc4ccccc34)c2cc1C` [compound 200] gave an IC50 [2, 14] of 10 to 100 nM.
With `Cc1cc2nc(SCCCC(=O)O)n(Cc3csc4ccc(Cl)cc34)c2cc1C` [compound 202] the IC50 [2, 14] was 10 to 100 nM.
In the case of `Cc1ccc2scc(Cn3c(SCCCC(=O)O)nc4cc(C)c(C)cc43)c2c1` [compound 204], the IC50 [2, 14] is reported as 10 to 100 nM.
In the case of `Cc1cc2nc(SCCCC(=O)O)n(Cc3csc4cccc(C)c34)c2cc1C` [compound 206], the IC50 [2, 14] is reported as 10 to 100 nM.
`COc1ccc2nc(SCCCC(=O)O)n(Cc3csc4ccc(C)cc34)c2c1` [compound 240] gave an IC50 [2, 14] of 10 to 100 nM.
`COc1ccc2nc(SCCCC(=O)O)n(Cc3csc4cccc(C)c34)c2c1` [compound 242] showed an IC50 [2, 14] of 10 to 100 nM.
In the case of `O=CNc1cnc(-c2ccccc2)n(CC(=O)NC(Cc2ccccc2)C(=O)C(=O)CCCOc2ccccn2)c1=O` (stereo not shown) [formula (III-I)], the “efficacy when orally administered to canine myocardial infarction models” value [11] is given as “efficacious”.
In the case of `COC(=O)c1ccc2oc(C(=O)C(Cc3ccccc3)NC(=O)Cn3c(-c4ccccc4OC)ncc(N)c3=O)nc2c1` (stereo not shown) [formula (IV-I)], the “chymase inhibiting activity by oral administration to mouse allergy models” value [12] is listed as “exhibit chymase inhibiting activity”.
With `CCOC(=O)[C@H](CCc1ccccc1)N[C@H]1CS[C@H](c2cccs2)CN(CC(=O)O)C1=O` [temocapril hydrochloride] the “suppression of cardiac hypertrophy” value [10] was “no notable suppression” and the “suppression of vasopressor effect (blood pressure)” value [10] was “no notable suppression”.
